# Reference: patent publication US8785468B2, “Phenylalanine amide derivatives useful for treating insulin-related diseases and conditions” (Amgen Inc., priority 2009, dated 2014)
# Counter-ions that a name gives are not always drawn.
# Target: T1, human receptor found in pancreatic islet cells (Homo sapiens, UniProt Q7Z601)
# T1 sequence (Q7Z601 1-462): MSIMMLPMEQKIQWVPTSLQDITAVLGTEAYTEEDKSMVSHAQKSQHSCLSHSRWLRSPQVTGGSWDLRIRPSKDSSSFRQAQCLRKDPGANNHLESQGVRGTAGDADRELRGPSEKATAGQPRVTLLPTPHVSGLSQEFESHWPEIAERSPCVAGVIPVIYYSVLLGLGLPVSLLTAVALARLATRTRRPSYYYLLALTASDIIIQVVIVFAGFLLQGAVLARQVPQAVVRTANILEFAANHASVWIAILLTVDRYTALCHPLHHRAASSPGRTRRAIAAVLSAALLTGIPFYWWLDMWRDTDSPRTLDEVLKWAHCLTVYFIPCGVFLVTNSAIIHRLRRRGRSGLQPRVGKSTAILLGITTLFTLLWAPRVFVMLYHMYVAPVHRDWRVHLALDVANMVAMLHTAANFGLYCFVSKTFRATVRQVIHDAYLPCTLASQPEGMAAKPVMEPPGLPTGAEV
# Assay: Activation of intracellular IP3 signaling in transfected cells (Activation Assay)
# Type: cell-based
# Conditions: calculated from IP3 concentration measurements in cells transfected with the human receptor
# Procedure: Table 12 provides exemplary compounds that were prepared and assessed, following protocols known to those of skilled in the art, for activation of intracellular inositol trisphosphate (IP3) signaling pathways that lead to elevation of intracellular calcium concentration. EC50 values provided in Table 12 were calculated from IP3 concentration measurements in cells transfected with a human receptor found in pancreatic islet cells, inter alia.
row,EC50 [nM],SMILES
1,< 50,"CCn1nc(-c2ccnc(NC)c2)cc1NC(=O)[C@H](Cc1ccc(F)cc1)NCC(=O)O [Example 31.4, 2-((S)-1-(1-Ethyl-3-(2-(methylamino)pyridin-4-yl)-1H-pyrazol-5-ylamino)-3-(4-fluorophenyl)-1-oxopropan-2-ylamino)acetic acid]"
2,100 to 1000,"O=C(Nc1cccc(-c2cn[nH]c2)c1)[C@H](Cc1ccccc1)NCc1cscn1 [Example 33, (2S)—N-(3-(1H-Pyrazol-4-yl)phenyl)-3-phenyl-2-(thiazol-4-ylmethylamino)propanamide]"
3,100 to 1000,"O=C(Nc1cccc(-c2ccncc2)c1)[C@H](Cc1ccccc1)NCCC1CCOCC1 [Example 34.1, (S)-3-Phenyl-N-(3-(pyridin-4-yl)phenyl)-2-(2-(tetrahydro-2H-pyran-4-yl)ethylamino)propanamide]"
4,1000 to 10000,"N[C@@H](Cc1ccccc1)C(=O)Nc1cccc(-c2ccncc2)c1 [Example 34.1.D, (S)-2-Amino-3-phenyl-N-(3-(pyridin-4-yl)phenyl)propanamide]"
5,100 to 1000,"CC(N[C@@H](Cc1ccccc1)C(=O)Nc1cccc(-c2ccncc2)c1)c1ccccn1 (stereo partly drawn) [Example 34.2, (2S)-3-Phenyl-2-(1-(pyridin-2-yl)ethylamino)-N-(3-(pyridin-4-yl)phenyl)propanamide]"
6,50 to 100,"CCC(N[C@@H](Cc1ccccc1)C(=O)Nc1cccc(-c2ccncc2)c1)c1ccccn1 (stereo partly drawn) [Example 34.3, (2S)-3-Phenyl-2-(1-(pyridin-2-yl)propylamino)-N-(3-(pyridin-4-yl)phenyl)propanamide]"
7,50 to 100,CC(C)(C)OC(=O)CN[C@@H](Cc1ccc(F)cc1)C(=O)Nc1cccc(-c2ccncc2)c1 [Example 34.4]
8,1000 to 10000,"O=C(Nc1cccc(-c2ccncc2)c1)[C@@H](Cc1ccccc1)NCc1cscn1 [Example 34.5, (R)-3-Phenyl-N-(3-(pyridin-4-yl)phenyl)-2-(thiazol-4-ylmethylamino)propanamide trifluoroacetate]"
9,1000 to 10000,"O=C(Nc1cccc(-c2ccncc2)c1)[C@@H](Cc1ccccc1)NCc1cncs1 [Example 34.6, (R)-3-Phenyl-N-(3-(pyridin-4-yl)phenyl)-2-(thiazol-5-ylmethylamino)propanamide trifluoroacetate]"
10,1000 to 10000,"O=C(Nc1cccc(-c2ccncc2)c1)[C@@H](Cc1ccccc1)NCc1nccs1 [Example 34.7, (R)-3-Phenyl-N-(3-(pyridin-4-yl)phenyl)-2-(thiazol-2-ylmethylamino)propanamide trifluoroacetate]"
11,1000 to 10000,"CN(C(=O)[C@H](Cc1ccccc1)NCc1cscn1)c1cccc(-c2ccncc2)c1 [Example 34.8, (S)—N-Methyl-3-phenyl-N-(3-(pyridin-4-yl)phenyl)-2-(thiazol-4-ylmethylamino)propanamide]"
12,100 to 1000,"CC(N[C@@H](Cc1ccccc1)C(=O)Nc1cccc(-c2ccncc2)c1)c1cnccn1 (stereo partly drawn) [Example 34.10, (2S)-3-Phenyl-2-(1-(pyrazin-2-yl)ethylamino)-N-(3-(pyridin-4-yl)phenyl)propanamide]"
13,1000 to 10000,"O=C(Nc1cccc(-c2ccncc2)c1)[C@H](Cc1ccccc1)NCC1CCOC1 (stereo partly drawn) [Example 34.11, (2S)-3-Phenyl-N-(3-(pyridin-4-yl)phenyl)-2-((tetrahydrofuran-3-yl)methylamino)propanamide TFA salt]"
14,100 to 1000,"O=C(Nc1cccc(-c2ccncc2)c1)[C@H](Cc1cccc(F)c1)NCC1CC1 [Example 34.12, (S)-2-(Cyclopropylmethylamino)-3-(3-fluorophenyl)-N-(3-(pyridin-4-yl)phenyl)propanamide]"
15,1000 to 10000,"CC(C)N[C@@H](Cc1ccccc1)C(=O)Nc1cccc(-c2ccncc2)c1 [Example 34.13, (S)-2-(Isopropylamino)-3-phenyl-N-(3-(pyridin-4-yl)phenyl)propanamide]"
16,50 to 100,"O=C(Nc1cccc(-c2ccncc2)c1)[C@H](Cc1ccccc1)NCc1cscn1 [Example 34.14, (S)-3-Phenyl-N-(3-(pyridin-4-yl)phenyl)-2-(thiazol-4-ylmethylamino)propanamide]"
17,1000 to 10000,"O=C(Nc1cccc(-c2ccncc2)c1)[C@H](Cc1ccccc1)NCc1cnco1 [Example 34.15, (S)-2-(Oxazol-5-ylmethylamino)-3-phenyl-N-(3-(pyridin-4-yl)phenyl)propanamide]"
18,100 to 1000,"O=C(Nc1cccc(-c2ccncc2)c1)[C@H](Cc1ccccc1)NCc1nccs1 [Example 34.16, (S)-3-Phenyl-N-(3-(pyridin-4-yl)phenyl)-2-(thiazol-2-ylmethylamino)propanamide]"
19,100 to 1000,"O=C(Nc1cccc(-c2ccncc2)c1)[C@H](Cc1ccccc1)NCc1cncs1 [Example 34.17, (S)-3-Phenyl-N-(3-(pyridin-4-yl)phenyl)-2-(thiazol-5-ylmethylamino)propanamide]"
20,100 to 1000,"Cc1ncc(CN[C@@H](Cc2ccccc2)C(=O)Nc2cccc(-c3ccncc3)c2)s1 [Example 34.18, (S)-2-((2-Methylthiazol-5-yl)methylamino)-3-phenyl-N-(3-(pyridin-4-yl)phenyl)propanamide]"
21,100 to 1000,"CC(N[C@@H](Cc1ccccc1)C(=O)Nc1cccc(-c2ccncc2)c1)c1cscn1 (stereo partly drawn) [Example 34.19, (2S)-3-Phenyl-N-(3-(pyridin-4-yl)phenyl)-2-(1-(thiazol-4-yl)ethylamino)propanamide]"
22,100 to 1000,"Cn1cnnc1CN[C@@H](Cc1ccccc1)C(=O)Nc1cccc(-c2ccncc2)c1 [Example 34.20, (S)-2-((4-Methyl-4H-1,2,4-triazol-3-yl)methylamino)-3-phenyl-N-(3-(pyridin-4-yl)phenyl)propanamide]"
23,1000 to 10000,"O=C(Nc1cccc(-c2ccncc2F)c1)[C@H](Cc1ccccc1)NCc1cscn1 [Example 34.21, (2S)—N-(3-(3-Fluoropyridin-4-yl)phenyl)-3-phenyl-2-(thiazol-4-ylmethylamino)propanamide TFA salt]"
24,100 to 1000,"COc1ncc(-c2ccncc2)cc1NC(=O)[C@H](Cc1ccccc1)N[C@@H](C)c1ccccn1 [Example 35.2, (S)—N-(2-Methoxy-5-(pyridin-4-yl)pyridin-3-yl)-3-phenyl-2-((S)-1-(pyridin-2-yl)ethylamino)propanamide]"
25,50 to 100,"COc1ncc(-c2ccncc2)cc1NC(=O)[C@H](Cc1ccccc1)NC1(c2csc(C)n2)CC1 [Example 35.3, (S)—N-(2-Methoxy-5-(pyridin-4-yl)pyridin-3-yl)-2-(1-(2-methylthiazol-4-yl)cyclopropylamino)-3-phenylpropanamide]"
26,100 to 1000,"COc1ncc(-c2ccncc2)cc1NC(=O)[C@H](Cc1ccccc1)NCc1ccon1 [Example 35.4, (S)-2-(Isoxazol-3-ylmethylamino)-N-(2-methoxy-5-(pyridin-4-yl)pyridin-3-yl)-3-phenylpropanamide]"
27,50 to 100,"COc1ncc(-c2ccncc2)cc1NC(=O)[C@H](Cc1ccccc1)NC1(c2ncccn2)CC1 [Example 35.5, (S)—N-(2-Methoxy-5-(pyridin-4-yl)pyridin-3-yl)-3-phenyl-2-(1-(pyrimidin-2-yl)cyclopropylamino)propanamide]"
28,1000 to 10000,"COc1ncc(-c2ccnc(C)c2)cc1NC(=O)[C@@H](N)Cc1ccccc1 [Example 35.6, (2S)-2-Amino-N-(2-methoxy-5-(2-methylpyridin-4-yl)pyridin-3-yl)-3-phenylpropanamide]"
